Data from US20230016182A1, “EO/PO-MODIFIED 9-PHENYLACRIDINE PHOTOSENSITIZERS AND APPLICATION THEREOF” (Changzhou Tronly New Electronic Materials Co., Ltd., priority 2019, published 2023).

Assay: Photosensitizer solubility test in 2-butanone and PGMEA
Type: physicochemical
Conditions: Test temperature 25° C.; for Solubility in 2-butanone: solvent 2-butanone
Description: Among them, 9-phenylacridine (denoted as C7, produced by CHANGZHOU TRONLY NEW ELECTRONIC MATERIALS CO., LTD.) was used for comparison.

For `c1ccc(-c2c3ccccc3nc3ccccc23)cc1` [Product C7, 9-phenylacridine], the “Solubility in 2-butanone” value was 0.74 g and the “Solubility in PGMEA” value (solvent PGMEA) was 0.51 g.

With `COCCOCCOCCOc1ccc(-c2c3ccccc3nc3ccccc23)cc1` [Product C1] the “Solubility in 2-butanone” value was 21.10 g.
